In publication PMC7503713, “GANT61 Reduces Hedgehog Molecule (GLI1) Expression and Promotes Apoptosis in Metastatic Oral Squamous Cell Carcinoma Cells” (International Journal of Molecular Sciences, 2020):

Key:
Type in all cases: cell-based, human
[1] = test system: CAL27; test: alamarBlue cytotoxicity assay, CAL27
Protocol: To assess the cytotoxicity of the GLI inhibitor GANT61 (Sigma-Aldrich, St. Louis, MO, USA) in tumor and non-tumor cell lines, an alamarBlue assay (Sigma-Aldrich Chemical Co, St. Louis, MO, USA) was performed after 72 h of exposure to the inhibitor, as described by Ahmed et al., 1994 [46]. Cells were distributed on 96-well plates at a density of 7 × 10^4 cells/mL for adhered cells, and 3 × 10^5 cells/mL for cells in suspension. All tested compounds were dissolved in DMSO, added to wells containing 100 µL of cells in complete medium, and then incubated for 72 h. Eight concentrations of GANT61 (0.19 to 50 µg/mL), Doxorubicin (Laboratory IMA S.A.I.C., Buenos Aires, Argentina), and 5-Fluorouracil (5-FU, Sigma-Aldrich, St. Louis, MO, USA), both used as positive controls at concentrations ranging from 0.03 to 5 µg/mL, were added to respective wells. Cells treated with the vehicle (0.5% DMSO) used to dilute the tested compounds were used as negative controls. Before the end of the incubation period (4 h for cell lines and 24 h for PBMCs), 20 µL of alamarBlue stock solution (resazurin, Sigma-Aldrich, St. Louis, MO, USA) was added to each well. Absorbance was measured at 570 nm (reduced) and 595 nm (oxidized) wavelengths, using a Spectramax 190 plate reader (Molecular Devices; Sunnyvale, CA, USA).
Statistical analyses were performed, using GraphPad Prism v. 6.03 (GraphPad Software, Inc., San Diego, USA). Data were analyzed according to distribution along the normal Gaussian curve. IC50 values were obtained through non-linear regression, using results from three independent experiments carried out in duplicate. Differences between groups resulting from in vitro assays were evaluated by ANOVA (analysis of variance) testing, followed by the Student–Newman–Keuls test. This study considered a level of significance, corresponding to alpha (α) or “p” value, when results were less than or equal to 5%.

[2] = test system: HSC3 cells; test: Phosphatidylserine externalization by flow cytometry (annexin V-FITC/PI)
Protocol: (§1) To study the effects of GANT61 on HSC3 cell viability, cycle, and death patterns, 4 mL of cellular solution (containing 0.7 × 10^5 cells/mL) was placed on 6-well plates and incubated overnight, to allow adhesion. […] For cell cycle analysis, the effects of GANT61 on HSC3 cells were also evaluated after 12 h of treatment. Negative controls were treated with the vehicle (0.2% DMSO) used to dilute the GLI inhibitor, and 5-fluorouracil (5-FU, 17 μM) was used as a positive control. All experiments were carried out in duplicate and repeated no less than three times. Cell viability was determined by the trypan blue exclusion method, in which 90 μL aliquots were collected at several incubation periods, stained with 10 μL trypan blue, and counted in a Neubauer chamber, under optical microscopy, at 20× magnification (Olympus CX41 Olympus, Tokyo, Japan).
Following treatment with GANT61, cells were labeled with annexin V-FITC and PI to determine cell viability (classified as viable, early apoptosis, late apoptosis, and necrosis), according to the manufacturer’s protocol (Becton Dickinson Biosciences, San José, CA, USA). Cells were acquired (10,000 events/sample) and analyzed on a BD LSRFortessa flow cytometer, using BD FACSDiva software version 6.2 (Becton Dickinson Biosciences, San José, CA, USA). The proportion of cells undergoing apoptosis was determined by the percentage of annexin labeling as quantified by the FlowJo program, version 10 (Flowjo LCC, Ashland, OR, USA). Cellular debris was omitted from our analyses.

[3] = test system: HSC3 cells; test: Cell cycle and internucleosomal DNA fragmentation by flow cytometry (PI); details: for cells in S and G2/M phases: ≥48 h
Protocol: as §1
Cellular nuclear DNA content was evaluated by flow cytometry, to differentiate among cell cycle phases, using PI (propidium iodide) as a fluorogenic agent. Following incubation with the GLI inhibitor, the supernatant was collected, and wells were washed with saline. Next, cells were trypsinized, then centrifuged (295× g for 5 min) together with the supernatant. Permeabilization was carried out by using a solution (300 µL) containing 0.1% triton X-100, 0.1% sodium citrate and 2 μg/mL of PI and 100 µg/mL RNase in distilled water, placed under dark conditions, at room temperature, for 30 min. Cells were then acquired (10,000 events/sample) and analyzed on a BD LSRFortessa flow cytometer, using BD FACSDiva software version 6.2 (Becton Dickinson Biosciences, San José, CA, USA). Proportions of fragmented internucleosomal DNA and cell cycle phases were determined by using Flowjo software v. 10 (Flowjo LCC, Ashland, OR, USA). Cells in sub-G1 phase were considered to present internucleosomal DNA fragmentation. Cellular debris was omitted from our analysis.

[4] = test system: HSC3 cells; test: Morphological analysis by flow cytometry (FSC/SSC)
Protocol: as §1
Morphological analysis of HSC3 cells was performed by flow cytometry, using FSC (size/volume) and SSC (granularity) parameters (FACSDiva). Cells were acquired (10,000 events/sample) and analyzed on a BD LSRFortessa flow cytometer, using the BD FACSDiva software version 6.2 (Becton Dickinson Biosciences, San José, CA, USA). Cellular debris was omitted from our analyses.

O=c1[nH]cc(F)c(=O)[nH]1 [5-FU, 5-fluorouracil]
IC50 ([1]; Homo sapiens, CAL-27, 72 h of incubation): 30.8 µM
cell apoptosis ([2]; 5-FU positive control, only after 72 h): significantly increased cell apoptosis
cells in S and G2/M phases ([3]; 5-FU positive control): significantly lower numbers of cells
cell morphology (FSC/SSC) ([4]; HSC3, 17 µM): changes consistent with apoptotic death

CN(C)c1ccccc1CN1CCCN(Cc2ccccc2N(C)C)C1c1ccncc1 [GANT61]
IC50 ([1]; 72 h of incubation): > 116 µM
cell apoptosis ([2]; 18 µM, 48 and 72 h): significantly increased cell apoptosis
exposure of phosphatidylserine on HSC3 cell surfaces ([2]; 36 µM, all times evaluated, vs DMSO (0.2%)): significantly higher exposure of phosphatidylserine
cells in the sub-G0/G1 phase ([3]; 36 µM, 24 and 48 h, vs DMSO 0.2%): significantly higher numbers of cells
percentage of HSC3 cells in the sub-G0/G1 phase ([3]; 36 µM, 12 h): significant increase
number of cells in the G0-G1 phase ([3]; 36 µM, from 12 h forward): significant decrease
cells in S and G2/M phases ([3]; 18 and 36 µM): significantly lower numbers of cells
cell morphology (FSC/SSC) ([4]; HSC3, 18 and 36 µM, 24, 48 and 72 h): cell shrinkage
